Key:
[1] = Refractive index (abbe refractometer); assay type: physicochemical
Description: The refractive index of each sample was measured using an abbe refractometer (“NAR-lT” manufactured by ATAGO CO., LTD.) at a temperature of 25° C. and a wavelength of 589 nm. Depending on the species of each sample, the refractive index was measured as follows.
For the after-mentioned 16NDSH, 15NDSH, 26NDSH and 27NDSH; 15DGNDSH; 15DHENDSH; 16DMNDSH and 15DMNDSH; and 16DCNDSH and 15DCNDSH, a sample was dissolved in 1,3-dimethyl-2-imidazolidinone (DMI) to prepare multiple solutions with different concentrations, and the refractive index of each solution was measured at a temperature of 25° C. and a wavelength of 589 nm. From the results of the refractive index at each concentration, the refractive index value at 100% by mass of the concentration was determined by extrapolation.
For the after-mentioned 16NDSHMA, 15NDSHMA, 26NDSHMA and 27NDSHMA; 16NDSHA and 15NDSHA; 15DANDSH; and 15DVNDSH, polymerization may occur during the mixing, and thus a sample was dissolved in a methoquinone/DMI solution (a solution containing 4000 ppm of methoquinone relative to the mass of DMI) to prepare multiple solutions with different concentrations. The refractive index of each solution was measured at a temperature of 25° C. and a wavelength of 589 nm. From the results of the refractive index at each concentration, the refractive index value at 100% by mass of the concentration was determined by extrapolation.
For the after-mentioned 16DANDSH; 16DVNDSH; 16DGNDSH; and 16DHENDSH, a sample was liquid for a while after preparation, and thus the refractive index was measured in the state of an undiluted solution. Further, thiol-ene-based resins (thiol-ene-based resins obtained from 16NDSH or 15NDSH and divinylbenzene) were measured in the same manner. […]

[2] = Dissolubility or compatibility (maximum dissolved concentration, HPLC); assay type: physicochemical; conditions: for Dissolubility, DMF / Dissolubility, Ethyl acetate / Dissolubility, MMA / Dissolubility, PGMEA / Dissolubility, THF / Dissolubility, Methanol / Dissolubility, Toluene / Dissolubility, Styrene: 25° C.; for Dissolubility, DMF: N,N-dimethylformamide; for Dissolubility, MMA: methyl methacrylate; for Dissolubility, PGMEA: propylene glycol monomethyl ether acetate; for Dissolubility, THF: tetrahydrofuran
Description: In more detail, the sample was added to a predetermined amount of a solvent or a polymerizable component until the sample was no longer dissolved, and the sample content of the liquid layer (the solvent layer) of the resulting mixture was analyzed using an HPLC (“SPD-20A” manufactured by SHIMADZU CORPORATION), and thus the concentration (the maximum dissolved concentration) of the sample in the liquid layer (the solvent layer) was determined as a solubility.

[3] = stated for the raw material used, method not stated
[4] = 25° C., 589 nm, DMI solutions of different concentrations, value at 100% by mass by extrapolation
[5] = 25° C., 589 nm, methoquinone/DMI solutions, value at 100% by mass by extrapolation
[6] = 25° C., 589 nm, measured as undiluted liquid (also thiol-ene-based resins)

Refractive index [1, 4]	Dissolubility, DMF [2] [% by mass]	Dissolubility, Ethyl acetate [2]	Dissolubility, MMA [2]	Dissolubility, PGMEA [2]	Dissolubility, THF [2] [% by mass]	Dissolubility, Methanol [2] [% by mass]	Dissolubility, Toluene [2]	saturation solubility ([2]; in 55% divinylbenzene (isomer mixture))	saturation solubility ([2]; in curable composition with bisphenol A-type liquid epoxy resin)	Refractive index [1, 5]	Dissolubility, Styrene [2]	saturation solubility ([2]; in styrene (curable resin))	Refractive index [1, 6]	SMILES	Refractive index [1, 3]
														CCc1nc(C)c[nH]1 [2-ethyl-4-methylimidazole]	1.499
1.657	10.1	0.03 % by mass	< 0.01 % by mass	0.02 % by mass	0.67									O=C(O)CSc1cccc2c(SCC(=O)O)cccc12 [Example 15DCNDSH, 1,5-bis(carboxymethylthio)naphthalene]	
1.711	34.4	7.05 % by mass		7.44 % by mass	29.0	1.08	7.26 % by mass	about 5 % by mass	about 0.1 % by mass					Sc1cccc2c(S)cccc12 [Example 15NDSH, 1,5-naphthalenedithiol]	
	13.2	4.36 % by mass	5.22 % by mass	3.34 % by mass	18.7	0.36	6.73 % by mass			1.638	10.4 % by mass	about 10 % by mass		C=C(C)C(=O)Sc1cccc2c(SC(=O)C(=C)C)cccc12 [Example 15NDSHMA, 1,5-bis(methacryloylthio)naphthalene]	
		Freely blended (>90) % by mass	Freely blended (>90) % by mass	Freely blended (>90) % by mass			Freely blended (>90) % by mass				Freely blended (>90) % by mass		1.667	C=CCSc1ccc2c(SCC=C)cccc2c1 [Example 16DANDSH, 1,6-bis(allylthio)naphthalene]	
		Freely blended (>90) % by mass	Freely blended (>90) % by mass	Freely blended (>90) % by mass			Freely blended (>90) % by mass				Freely blended (>90) % by mass		1.665	c1cc(SCC2CO2)c2ccc(SCC3CO3)cc2c1 (centres unmarked) [Example 16DGNDSH, 1,6-bis(glycidylthio)naphthalene]	
		Freely blended (>90) % by mass	Freely blended (>90) % by mass	Freely blended (>90) % by mass			1.69 % by mass				2.87 % by mass		1.672	OCCSc1ccc2c(SCCO)cccc2c1 [Example 16DHENDSH, 1,6-bis(2-hydroxyethylthio)naphthalene]	
		Freely blended (>90) % by mass	Freely blended (>90) % by mass	Freely blended (>90) % by mass			Freely blended (>90) % by mass				Freely blended (>90) % by mass		1.699	C=CSc1ccc2c(SC=C)cccc2c1 [Example 16DVNDSH, 1,6-bis(vinylthio)naphthalene]	
1.722						19.3								Sc1ccc2c(S)cccc2c1 [Example 16NDSH, 1,6-naphthalenedithiol]	
	59.5	44.6 % by mass	44.1 % by mass	31.1 % by mass	67.6	2.49	50.7 % by mass			1.647	51.1 % by mass			C=C(C)C(=O)Sc1ccc2c(SC(=O)C(=C)C)cccc2c1 [Example 16NDSHMA, 1,6-bis(methacryloylthio)naphthalene]	
														C=Cc1ccccc1 [styrene]	1.544

— patent US20240383845A1, “NAPHTHALENEDITHIOL AND DERIVATIVE THEREOF, AND PRODUCTION PROCESS AND USE FOR THE SAME” (SUGAI CHEMICAL INDUSTRY CO., LTD., priority 2021, published 2024)
